Values after ≈ are worked out from the molar mass of the structure shown.
Tests used:
[1] = tested on: Botrytis cinerea; assay: Antifungal activity against Botryotinia fuckeliana inoculated in strawberry fruit; type: functional, organism-based
[2] = tested on: Botrytis cinerea; assay: Protective antifungal activity against Botryotinia fuckeliana inoculated in fungicide-applied strawberry fruit assessed as disease severity measuring lesion diameter at 300 ug AI/ml applied 24 hr prior inoculation; type: functional
[3] = tested on: Botrytis cinerea; assay: Curative antifungal activity against Botryotinia fuckeliana inoculated in strawberry fruit assessed as disease severity measuring lesion diameter at 300 ug AI/ml applied 96 hr post-inoculation; type: functional
[4] = tested on: Botrytis cinerea; assay: Curative antifungal activity against Botryotinia fuckeliana inoculated in strawberry fruit assessed as disease control efficacy at 300 ug AI/ml applied 48 hr post-inoculation relative to control; type: functional
[5] = tested on: Botrytis cinerea; assay: Curative antifungal activity against Botryotinia fuckeliana inoculated in strawberry fruit assessed as disease severity measuring lesion diameter at 300 ug AI/ml applied 24 hr post-inoculation; type: functional
[6] = tested on: Botrytis cinerea; assay: Protective antifungal activity against Botryotinia fuckeliana inoculated in fungicide-applied strawberry fruit assessed as disease control efficacy at 300 ug AI/ml applied 48 hr prior inoculation relative to control; type: functional
[7] = tested on: Botrytis cinerea; assay: Curative antifungal activity against Botryotinia fuckeliana inoculated in strawberry fruit assessed as disease severity measuring lesion diameter at 300 ug AI/ml applied 48 hr post-inoculation; type: functional
[8] = tested on: Botrytis cinerea; assay: Protective antifungal activity against Botryotinia fuckeliana inoculated in fungicide-applied strawberry fruit assessed as disease severity measuring lesion diameter at 300 ug AI/ml applied 96 hr prior-inoculation; type: functional
[9] = tested on: Botrytis cinerea; assay: Protective antifungal activity against Botryotinia fuckeliana inoculated in fungicide-applied strawberry fruit assessed as disease control efficacy at 300 ug AI/ml applied 24 hr prior inoculation relative to control; type: functional
[10] = tested on: Botrytis cinerea; assay: Protective antifungal activity against Botryotinia fuckeliana inoculated in fungicide-applied strawberry fruit assessed as disease control efficacy at 300 ug AI/ml applied 96 hr prior-inoculation relative to control; type: functional
[11] = tested on: Botrytis cinerea; assay: Protective antifungal activity against Botryotinia fuckeliana inoculated in fungicide-applied strawberry fruit assessed as disease severity measuring lesion diameter at 300 ug AI/ml applied 48 hr prior inoculation; type: functional
[12] = tested on: Botrytis cinerea; assay: Curative antifungal activity against Botryotinia fuckeliana inoculated in strawberry fruit assessed as disease control efficacy at 300 ug AI/ml applied 96 hr post-inoculation relative to control; type: functional
[13] = tested on: Botrytis cinerea; assay: Curative antifungal activity against Botryotinia fuckeliana inoculated in strawberry fruit assessed as disease control efficacy at 300 ug AI/ml applied 24 hr post-inoculation relative to control; type: functional
[14] = tested on: Botrytis cinerea; assay: Curative antifungal activity against Botryotinia fuckeliana inoculated in strawberry fruit assessed as disease control efficacy at 100 ug AI/ml applied 48 hr post-inoculation relative to control; type: functional
[15] = tested on: Botrytis cinerea; assay: Protective antifungal activity against Botryotinia fuckeliana inoculated in fungicide-applied strawberry fruit assessed as disease control efficacy at 100 ug AI/ml applied 96 hr prior-inoculation relative to control; type: functional
[16] = tested on: Botrytis cinerea; assay: Curative antifungal activity against Botryotinia fuckeliana inoculated in strawberry fruit assessed as disease severity measuring lesion diameter at 100 ug AI/ml applied 96 hr post-inoculation; type: functional
[17] = tested on: Botrytis cinerea; assay: Protective antifungal activity against Botryotinia fuckeliana inoculated in fungicide-applied strawberry fruit assessed as disease control efficacy at 100 ug AI/ml applied 48 hr prior inoculation relative to control; type: functional
[18] = tested on: Botrytis cinerea; assay: Protective antifungal activity against Botryotinia fuckeliana inoculated in fungicide-applied strawberry fruit assessed as disease severity measuring lesion diameter at 100 ug AI/ml applied 24 hr prior inoculation; type: functional
[19] = tested on: Botrytis cinerea; assay: Curative antifungal activity against Botryotinia fuckeliana inoculated in strawberry fruit assessed as disease control efficacy at 100 ug AI/ml applied 96 hr post-inoculation relative to control; type: functional
[20] = tested on: Botrytis cinerea; assay: Curative antifungal activity against Botryotinia fuckeliana inoculated in strawberry fruit assessed as disease severity measuring lesion diameter at 100 ug AI/ml applied 48 hr post-inoculation; type: functional
[21] = tested on: Botrytis cinerea; assay: Curative antifungal activity against Botryotinia fuckeliana inoculated in strawberry fruit assessed as disease severity measuring lesion diameter at 100 ug AI/ml applied 24 hr post-inoculation; type: functional
[22] = tested on: Botrytis cinerea; assay: Protective antifungal activity against Botryotinia fuckeliana inoculated in fungicide-applied strawberry fruit assessed as disease severity measuring lesion diameter at 100 ug AI/ml applied 96 hr prior-inoculation; type: functional
[23] = tested on: Botrytis cinerea; assay: Curative antifungal activity against Botryotinia fuckeliana inoculated in strawberry fruit assessed as disease control efficacy at 100 ug AI/ml applied 24 hr post-inoculation relative to control; type: functional
[24] = tested on: Botrytis cinerea; assay: Protective antifungal activity against Botryotinia fuckeliana inoculated in fungicide-applied strawberry fruit assessed as disease control efficacy at 100 ug AI/ml applied 24 hr prior inoculation relative to control; type: functional
[25] = tested on: Botrytis cinerea; assay: Protective antifungal activity against Botryotinia fuckeliana inoculated in fungicide-applied strawberry fruit assessed as disease severity measuring lesion diameter at 100 ug AI/ml applied 48 hr prior inoculation; type: functional

Compound `COC(=O)N(OC)c1ccccc1COc1ccn(-c2ccc(Cl)cc2)n1` [PYRACLOSTROBIN] has an EC50 [1] of 0.01 µg/mL (≈ 0.0258 µM).

Compound `N#Cc1c[nH]cc1-c1cccc2c1OC(F)(F)O2` [FLUDIOXONIL] has an EC50 [1] of 0.003 µg/mL (≈ 0.0121 µM).

Compound `CC(C)NC(=O)N1CC(=O)N(c2cc(Cl)cc(Cl)c2)C1=O` [IPRODIONE] has an EC50 [1] of 0.25 µg/mL (≈ 0.757 µM).

Compound `Cc1cc(C2CC2)nc(Nc2ccccc2)n1` [CYPRODINIL] has an EC50 [1] of 0.007 µg/mL (≈ 0.0311 µM).

Compound `O=C(Nc1ccccc1-c1ccc(Cl)cc1)c1cccnc1Cl` [BOSCALID] has an Activity [2] of 1.5 mm, an Activity [3] of 13.2 mm and an Efficacy [4] of 94.1%. For the same compound, the Activity [5] was 4.7 mm, the Efficacy [6] was 84% and the Activity [7] was 1.1 mm. It also gave an Activity [8] of 3.4 mm, an Efficacy [9] of 91.7% and an Efficacy [10] of 81.8%. The EC50 [1] was 0.09 µg/mL (≈ 0.262 µM), the Activity [11] was 3 mm and the Efficacy [12] was 29.8%. For the same compound, the Efficacy [13] was 74.7%.

`CC1(C(=O)Nc2ccc(O)c(Cl)c2Cl)CCCCC1` [FENHEXAMID] showed an Efficacy [14] of 89.2%, an Efficacy [15] of 94.4% and an Activity [16] of 14.5 mm. The Efficacy [17] was 97.6%, the Activity [18] was 0.1 mm and the Efficacy [19] was 23.2%. For the same compound, the Activity [20] was 2 mm, the Activity [21] was 7.2 mm and the Activity [22] was 1 mm. It also gave an EC50 [1] of 0.04 µg/mL (≈ 0.132 µM), an Efficacy [23] of 61.4% and an Efficacy [24] of 99.2%. For the same compound, the Activity [25] was 0.4 mm.

`COC(=O)Nc1nc2ccccc2[nH]1` [CARBENDAZIM] gave an EC50 [1] of 0.05 µg/mL (≈ 0.262 µM).

— ChEMBL document CHEMBL3044799, “Biological activity of the succinate dehydrogenase inhibitor fluopyram against Botrytis cinerea and fungal baseline sensitivity” (Pest Manag Sci, 2012)
